Reference: PubChem BioAssay (NCI)
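Where inhibition never reached the appropriate level, the endpoint shown equals the highest concentration tested. Otherwise, values were interpolated linearly from a five-concentration, 48-hour dose response in 96-well plates. At the GI50, growth is halved. Definition used: TGI = concentration required for complete inhibition of growth.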

How the values were obtained:
Assay in all cases: NCI anticancer screen, dose series, 48 h
[1] = test system: UACC-257 melanoma
[2] = test system: COLO 205 colon
[3] = test system: SR leukemia
[4] = test system: SF-268 CNS
[5] = test system: RPMI-8226 leukemia
[6] = test system: CCRF-CEM leukemia
[7] = test system: HCT-116 colon
[8] = test system: SNB-75 CNS
[9] = test system: NCI-H226 lung
[10] = test system: UACC-62 melanoma

Structure (SMILES): Cc1ccc(C)c(NC(=O)C(=O)Nn2c(=S)[nH]c3ccccc3c2=O)c1
- TGI [1]: > 100 µM
- TGI [2]: > 100 µM
- TGI [3]: > 100 µM
- TGI [4]: > 100 µM
- TGI [5]: > 100 µM
- TGI [6]: > 100 µM
- TGI [7]: > 100 µM
- TGI [8]: > 100 µM
- TGI [9]: > 100 µM
- TGI [10]: > 100 µM

Structure (SMILES): CN(C)C(=S)/N=c1\ss/c(=N\S(=O)(=O)c2ccccc2)n1C
- TGI [1]: > 100 µM
- TGI [3]: > 100 µM
- TGI [4]: > 100 µM
- TGI [5]: > 100 µM
- TGI [6]: > 100 µM
- TGI [7]: > 100 µM
- TGI [8]: > 100 µM
- TGI [9]: > 100 µM
- TGI [10]: > 100 µM

Structure (SMILES): C[C@H]1CCC2C(OC(=O)[C@@H]2CN(C)C)[C@]2(C)C(=O)C=CC12O (stereo not given in full)
- TGI [1]: 23.6 µM
- TGI [2]: 17.9 µM
- TGI [3]: 11.2 µM
- TGI [4]: 28.6 µM
- TGI [5]: 16.2 µM
- TGI [6]: 9.22 µM
- TGI [7]: 12.5 µM
- TGI [8]: 27.1 µM
- TGI [9]: > 38.1 µM
- TGI [10]: 9.32 µM

Structure (SMILES): CC(C)OP(=O)(OC(C)C)/C(C#N)=C/c1c[nH]c2ccccc12
- TGI [1]: > 100 µM
- TGI [2]: > 100 µM
- TGI [3]: > 100 µM
- TGI [4]: > 100 µM
- TGI [5]: > 100 µM
- TGI [6]: > 100 µM
- TGI [7]: > 100 µM
- TGI [8]: > 100 µM
- TGI [9]: > 100 µM
- TGI [10]: > 100 µM

Structure (SMILES): CNC(=O)c1cc(-c2ccc(F)cc2)cc(-c2ccc(S(=O)(=O)N3CCCC3)cc2)c1N
- GI50 [1]: > 22.6 µM
- TGI [1]: > 25 µM
- GI50 [2]: 23.5 µM
- TGI [2]: > 25 µM
- GI50 [3]: > 25 µM
- TGI [3]: > 25 µM
- GI50 [4]: > 25 µM
- TGI [4]: > 25 µM
- GI50 [5]: 10.1 µM
- TGI [5]: > 25 µM
- GI50 [6]: > 20.7 µM
- TGI [6]: > 25 µM
- GI50 [7]: 11.6 µM
- TGI [7]: > 25 µM
- GI50 [8]: 12.7 µM
- TGI [8]: > 25 µM
- GI50 [9]: > 25 µM
- TGI [9]: > 25 µM
- GI50 [10]: > 23.1 µM
- TGI [10]: > 25 µM

Structure (SMILES): C1CC[N-]CC1.CC(=N\O)/C(C)=N/O.CC(=N\O)/C(C)=N/O.C[CH-]C(C)O.[Co+2]
- GI50 [1]: 18.2 µM
- TGI [1]: 40.2 µM
- GI50 [2]: 14.9 µM
- TGI [2]: 29 µM
- GI50 [3]: 18.2 µM
- TGI [3]: 45 µM
- GI50 [4]: 29.4 µM
- TGI [4]: 95 µM
- GI50 [5]: 18.8 µM
- TGI [5]: 43.4 µM
- GI50 [7]: 18.2 µM
- TGI [7]: 36.7 µM
- GI50 [8]: 19.5 µM
- TGI [8]: 71.4 µM
- GI50 [9]: 26.2 µM
- TGI [9]: 69 µM
- GI50 [10]: 15.6 µM
- TGI [10]: 29 µM

Structure (SMILES): COc1ccc2c(c1)C=CC1C2CC[C@]2(C)C(NC(=O)/C=C/c3ccc(O)c(O)c3)CCC12 (stereo not given in full)
- GI50 [1]: 20.8 µM
- TGI [1]: 42.7 µM
- GI50 [2]: 2.61 µM
- TGI [2]: 7.75 µM
- GI50 [3]: 4.06 µM
- TGI [3]: 17.1 µM
- GI50 [4]: 17.2 µM
- TGI [4]: 33 µM
- GI50 [5]: 7.98 µM
- TGI [5]: 39.1 µM
- GI50 [6]: 4.36 µM
- TGI [6]: 19.5 µM
- GI50 [7]: 4.49 µM
- TGI [7]: 17.4 µM
- GI50 [8]: 6.01 µM
- TGI [8]: 20.5 µM
- GI50 [9]: 15.3 µM
- TGI [9]: 41.3 µM
- GI50 [10]: 14.9 µM
- TGI [10]: 30.8 µM

Structure (SMILES): O=C1/C(=C/c2ccc(O)cc2)Oc2ccccc21
- TGI [1]: > 100 µM
- TGI [2]: > 100 µM
- TGI [3]: > 100 µM
- TGI [4]: > 100 µM
- TGI [5]: > 100 µM
- TGI [6]: > 100 µM
- TGI [7]: > 100 µM
- TGI [8]: > 100 µM
- TGI [9]: > 100 µM
- TGI [10]: > 100 µM

Structure (SMILES): CSc1nc2ccc(C)cc2cc1/C=C1/C=C(c2ccccc2)NC1=O
- GI50 [1]: 94.6 µM
- TGI [1]: > 100 µM
- GI50 [2]: 5.9 µM
- TGI [2]: > 100 µM
- GI50 [3]: 0.598 µM
- TGI [3]: > 100 µM
- GI50 [4]: 3.16 µM
- TGI [4]: 48 µM
- GI50 [5]: 8.9 µM
- TGI [5]: > 100 µM
- GI50 [6]: 26.4 µM
- TGI [6]: > 100 µM
- GI50 [7]: 0.731 µM
- TGI [7]: 4.07 µM
- GI50 [8]: 2.81 µM
- TGI [8]: 14.8 µM
- GI50 [9]: 7.3 µM
- TGI [9]: > 100 µM
- GI50 [10]: 10.8 µM
- TGI [10]: 48.2 µM

Structure (SMILES): CN1CCN(c2nc3cc(F)ccc3n3cccc23)CC1
- TGI [1]: 79 µM
- TGI [2]: > 100 µM
- TGI [3]: > 100 µM
- TGI [4]: > 100 µM
- TGI [5]: > 100 µM
- TGI [6]: > 100 µM
- TGI [7]: > 100 µM
- TGI [8]: 90.7 µM
- TGI [9]: 54.1 µM
- TGI [10]: 80.4 µM

Structure (SMILES): CC1=C2C3OC(=O)C(C)C3C(O)C[C@@]2(C)C(=O)CC1 (stereo not given in full)
- TGI [1]: > 100 µM
- TGI [2]: > 100 µM
- TGI [3]: > 100 µM
- TGI [4]: > 100 µM
- TGI [5]: > 100 µM
- TGI [6]: > 100 µM
- TGI [7]: > 100 µM
- TGI [8]: > 100 µM
- TGI [9]: > 100 µM
- TGI [10]: > 100 µM

Structure (SMILES): NC1=C(O)C(=O)C(c2c[nH]c3ccc(OCc4ccccc4)cc23)O1 (stereo not given)
- TGI [1]: > 100 µM
- TGI [2]: > 100 µM
- TGI [3]: > 100 µM
- TGI [4]: > 100 µM
- TGI [5]: > 100 µM
- GI50 [6]: > 100 µM
- TGI [6]: > 100 µM
- TGI [7]: > 100 µM
- TGI [8]: > 91.3 µM
- TGI [9]: > 100 µM
- TGI [10]: > 100 µM

Structure (SMILES): CCOC(=O)CC(C)C1(C=O)CCCCC1=O (stereo not given)
- TGI [1]: > 100 µM
- TGI [2]: > 100 µM
- TGI [3]: 49.8 µM
- TGI [4]: > 100 µM
- TGI [5]: 53.2 µM
- TGI [6]: > 100 µM
- TGI [7]: > 100 µM
- TGI [8]: > 100 µM
- TGI [9]: > 100 µM
- TGI [10]: > 100 µM

Structure (SMILES): CC(=O)[O][Hg][c]1s[c]([Hg][O]C(C)=O)[c]([Hg][O]C(C)=O)[c]1[Hg][O]C(C)=O
- GI50 [2]: 15.9 µM
- TGI [2]: 38.6 µM
- GI50 [3]: 2.27 µM
- TGI [3]: > 100 µM
- GI50 [4]: 5.92 µM
- GI50 [5]: 7.54 µM
- TGI [5]: > 100 µM
- GI50 [6]: 1.18 µM
- TGI [6]: > 100 µM
- GI50 [7]: 7.12 µM
- TGI [7]: > 100 µM
- GI50 [8]: 4.91 µM
- TGI [8]: 25.4 µM
- GI50 [9]: > 100 µM
- TGI [9]: > 100 µM
- GI50 [10]: 6.47 µM
- TGI [10]: 27.4 µM

Structure (SMILES): Cn1cccc1-c1cc(-c2ccccc2)nc(N)c1C#N
- GI50 [1]: > 100 µM
- TGI [1]: > 100 µM
- GI50 [2]: > 100 µM
- TGI [2]: > 100 µM
- GI50 [3]: 40.8 µM
- TGI [3]: > 100 µM
- GI50 [4]: > 100 µM
- TGI [4]: > 100 µM
- GI50 [5]: 55.9 µM
- TGI [5]: > 100 µM
- GI50 [7]: > 100 µM
- TGI [7]: > 100 µM
- GI50 [8]: > 43 µM
- TGI [8]: > 87.9 µM
- GI50 [9]: > 46.4 µM
- TGI [9]: > 100 µM
- GI50 [10]: 34.5 µM
- TGI [10]: > 100 µM

Structure (SMILES): O=C(N/N=C/c1ccc(N(CCCl)CCCl)cc1)c1ccc(C(=O)N/N=C/c2ccc(N(CCCl)CCCl)cc2)cc1
- GI50 [1]: > 100 µM
- TGI [1]: > 100 µM
- GI50 [2]: 15.8 µM
- TGI [2]: > 100 µM
- TGI [3]: > 100 µM
- GI50 [4]: 0.284 µM
- TGI [4]: 27.8 µM
- GI50 [5]: 1.33 µM
- TGI [5]: 15.1 µM
- GI50 [6]: 0.0349 µM
- TGI [6]: > 100 µM
- GI50 [7]: 2.48 µM
- TGI [7]: > 100 µM
- GI50 [8]: 6.74 µM
- TGI [8]: > 100 µM
- GI50 [9]: 57.4 µM
- TGI [9]: > 100 µM
